# Experiments:
# Assay type in all cases: cell-based, mouse
# IL-6 = IL-6 production in BMDCs, intracellular staining, flow cytometry; settings: indole 24 hours (overnight), LPS 1 ug/ml 4 hours
# Description: Briefly, bone marrow was harvested from femurs of mice and cultured for 7 days in the presence of DC-skewing cytokines, GM-CSF and IL-4. […] The pro-inflammatory cytokines, IL-6 and IL-12, were specifically queried. […] Immune cells communicate largely through the production of soluble factors including cytokines, and DCs detect these signals and determine their effector functions accordingly.
# Th17 cells = experiment: Th17 differentiation in DC-T cell co-culture; settings: co-culture with DCs conditioned with indole, Th17-skewing cytokines present
# Procedure: FIGS. 19A-19C graphically illustrate that indole-conditioned DCs inhibit Th1, Th2, and Th17 differentiation. Naïve CD4+CD25-T cells from OT-II TCR transgenic mice were isolated by column purification. Naïve T cells were then co-cultured with OVA323-339 peptide-loaded BMDCs for 72 hours in the presence or absence of lineage-skewing cytokines (described in methods). BMDCs were previously treated with indole, RA, or DMF from day 3. For the last 5 hours of culture, T cells were restimulated with PMA and ionomycin in the presence of Golgiplug, followed by intracellular staining. Cytokine production was determined to assess differentiation of Th1 (FIG. 19A), Th2 (FIG. 19B), and Th17 CD4+T (FIG. 19C) cells. Mean of three independent experiments. * indicates p<0.05 for one-way ANOVA followed by Dunnett's post-test.
# In order to determine whether the indole-conditioned DC induction of Tregs was specific to this lineage, additional T cell fates were quieried. Activated CD4+T helper cells are typically divided into the subsets Th1, Th2, Th17, and Treg, based on their expression of transcription factors and pattern of cytokine secretion. The antigen-specific co-culture system was used to investigate these remaining traditional T cell lineages with the addition of an endpoint PMA/Ionomycin stimulation to induce cytokine secretion. […]
# Stat3 = experiment: IL-6-induced phospho-Stat3 in BMDMs
# Procedure: BMDMs were treated with indole or DMF control for 18 hours, then stimulated with IL-6 (10 ng/ml) for the given times. Cells were stained for phospho-Stat3 and analyzed by flow cytometry.
# Similarly, the ex vivo indole conditioning of splenocytes was repeated with tissues from AhR-deficient and wild-type mice and analyzed TNF production. […] Importantly, in this set of experiments splenocytes were stimulated with LPS, heat-killed S. typhimurium, and CpG. […] Specifically, BMDMs were generated from WT or AhR-KO mice and treated with indole (1 mM) or DMF control for 18 hours. BMDMs were then stimulated with IL-6 (10 ng/ml) for the given times and stained for phospho-Stat3, which was detected by flow cytometry.
smiles,measurement,setting,value
"c1ccc2[nH]ccc2c1 [Indole, indole]",inhibition of IL-6 production,IL-6,≥ 2 fold
same,"Th17 differentiation, rate of T cells",Th17 cells,less than 0.5%
same,reduction of Stat3 signaling,"Stat3; BMDMs from WT or AhR-KO mice, 1 mM indole 18 hours, IL-6 10 ng/ml",over 60%
same,reduction of number of macrophages undergoing Stat3 phosphorylation,"Stat3; BMDMs, overnight indole, IL-6 stimulation",50%

# From patent US11612586B2, “Indole regulation of antigen presenting cells” (THE TEXAS A&M UNIVERSITY SYSTEM, priority 2016, dated 2023)
